Each structure is given as a SMILES string.

In data set [1] the test system is Mus musculus. The data set can be described thus: Toxicity in human MX1 cells xenografted athymic nude Ncr nu/nu mouse assessed as body weight at 10 ug/day, sc after 24 days relative to control. The class given is organism-based. The conditions noted are these: in vivo, 576 h. In general terms: Xenograft models place foreign cells or tissue in a host animal.
The subject of data set [2] is MX1. The data set is described as follows: Antitumor activity against human MX1 cells xenografted athymic nude Ncr nu/nu mouse assessed as inhibition of tumor weight at 20 mg/kg, ip after 15 days. The format is functional. The conditions noted are these: 360 h, route intraperitoneal.
The test system of data set [3] is Mus musculus. The data set can be described thus: Toxicity in human MX1 cells xenografted athymic nude Ncr nu/nu mouse assessed as body weight at 20 mg/kg, ip after 24 days relative to control. The format is organism-based. Also on record: dose 20 mg/kg, route intraperitoneal. The conditions noted are these: in vivo, 576 h.
For data set [4], the system named is MX1. The data set is described as follows: Antitumor activity against human MX1 cells xenografted athymic nude Ncr nu/nu mouse assessed as inhibition of tumor volume at 20 mg/kg, ip after 8 days. The class given is functional. Conditions: 192 h, route intraperitoneal.
Data set [5] addresses Epidermal growth factor receptor (Homo sapiens, UniProt P00533). The data set is described as follows: Displacement of radiolabeled EGF from EGF receptor expressed in human MX1 cells. The format is cell-based.
The target of data set [6] is T1, Growth hormone-releasing hormone receptor (Homo sapiens, UniProt Q02643).
T1 sequence (Q02643 whole entry): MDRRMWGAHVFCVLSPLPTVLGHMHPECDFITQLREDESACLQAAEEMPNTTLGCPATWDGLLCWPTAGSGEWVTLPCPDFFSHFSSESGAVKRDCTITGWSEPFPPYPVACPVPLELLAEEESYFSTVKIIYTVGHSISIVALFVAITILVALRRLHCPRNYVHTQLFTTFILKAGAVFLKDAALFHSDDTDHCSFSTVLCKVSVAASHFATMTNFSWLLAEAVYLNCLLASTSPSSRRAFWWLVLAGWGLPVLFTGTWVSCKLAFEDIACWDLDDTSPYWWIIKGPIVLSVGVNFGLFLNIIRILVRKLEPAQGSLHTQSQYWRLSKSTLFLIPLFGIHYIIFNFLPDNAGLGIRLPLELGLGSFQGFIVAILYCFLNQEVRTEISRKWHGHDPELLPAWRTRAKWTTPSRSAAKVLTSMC
The data set can be described thus: Displacement of [125I]JV1-42 from GHRH receptor expressed in human MX1 cells. The class given is cell-based.

In data set [7] the test system is MX1. The data set is described as follows: Antitumor activity against human MX1 cells xenografted athymic nude Ncr nu/nu mouse assessed as inhibition of tumor volume at 20 mg/kg, ip after 3 weeks. The class given is functional. Conditions: 504 h, route intraperitoneal.
Data set [8] relates to MX1. The data set can be described thus: Antitumor activity against human MX1 cells xenografted athymic nude Ncr nu/nu mouse assessed as inhibition of tumor weight at 10 ug/day, sc after 3 weeks. The format is functional.
The test system of data set [9] is MX1. The data set is described as follows: Antitumor activity against human MX1 cells xenografted athymic nude Ncr nu/nu mouse assessed as inhibition of tumor volume at 10 ug/day, sc after 3 weeks. The class given is functional.

Sequence of Epidermal growth factor receptor (P00533 whole entry): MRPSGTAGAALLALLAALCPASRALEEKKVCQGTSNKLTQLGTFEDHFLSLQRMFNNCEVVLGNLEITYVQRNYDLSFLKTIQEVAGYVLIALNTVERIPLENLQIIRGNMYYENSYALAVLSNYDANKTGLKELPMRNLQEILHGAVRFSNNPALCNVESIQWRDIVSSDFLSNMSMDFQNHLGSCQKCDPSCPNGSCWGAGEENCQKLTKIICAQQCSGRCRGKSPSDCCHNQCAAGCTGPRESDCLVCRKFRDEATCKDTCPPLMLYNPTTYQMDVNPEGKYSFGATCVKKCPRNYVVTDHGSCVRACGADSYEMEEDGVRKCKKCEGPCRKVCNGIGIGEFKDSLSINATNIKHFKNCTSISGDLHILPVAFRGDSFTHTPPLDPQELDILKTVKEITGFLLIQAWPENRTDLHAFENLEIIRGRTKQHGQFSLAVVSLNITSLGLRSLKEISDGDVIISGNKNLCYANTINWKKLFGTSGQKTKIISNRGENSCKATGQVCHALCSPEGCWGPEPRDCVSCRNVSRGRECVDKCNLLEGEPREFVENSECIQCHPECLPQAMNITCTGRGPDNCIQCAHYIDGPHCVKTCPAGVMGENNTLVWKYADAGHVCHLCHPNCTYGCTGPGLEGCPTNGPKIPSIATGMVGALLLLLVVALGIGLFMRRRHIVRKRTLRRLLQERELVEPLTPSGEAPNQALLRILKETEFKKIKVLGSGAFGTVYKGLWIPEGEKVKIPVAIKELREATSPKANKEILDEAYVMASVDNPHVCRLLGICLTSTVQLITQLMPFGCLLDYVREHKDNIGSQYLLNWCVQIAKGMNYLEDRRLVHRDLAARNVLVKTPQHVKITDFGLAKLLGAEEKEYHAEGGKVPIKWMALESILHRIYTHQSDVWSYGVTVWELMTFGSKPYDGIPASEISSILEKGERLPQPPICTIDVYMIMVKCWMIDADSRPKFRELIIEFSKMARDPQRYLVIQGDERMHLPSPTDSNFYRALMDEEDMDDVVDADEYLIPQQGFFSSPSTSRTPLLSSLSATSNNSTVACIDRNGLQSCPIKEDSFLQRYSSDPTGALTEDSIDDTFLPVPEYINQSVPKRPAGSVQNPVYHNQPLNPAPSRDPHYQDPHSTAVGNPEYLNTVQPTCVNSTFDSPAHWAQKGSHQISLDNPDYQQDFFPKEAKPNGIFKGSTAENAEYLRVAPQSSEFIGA

As for `CCCC[C@H](NC(=O)[C@@H](NC(=O)[C@H](CC(=O)O)NC(=O)[C@H](CCC(N)=O)NC(=O)[C@H](CC(C)C)NC(=O)[C@H](CC(C)C)NC(=O)[C@H](CCCCN)NC(=O)[C@H](Cc1cnc[nH]1)NC(=O)[C@H](C)NC(=O)[C@H](CO)NC(=O)[C@H](CC(C)C)NC(=O)[C@H](CCC(N)=O)NC(=O)[C@H](CC)NC(=O)[C@H](CC(C)C)NC(=O)[C@@H](NC(=O)[C@H](CCCCN)NC(=O)[C@H](Cc1cnc[nH]1)NC(=O)[C@H](Cc1ccc(OC)cc1)NC(=O)[C@H](CCCCNC(=N)N)NC(=O)[C@H](C)NC(=O)[C@@H](NC(=O)[C@H](Cc1ccc(Cl)cc1)NC(=O)[C@@H](NC(=O)[C@H](C)NC(=O)[C@H](CC(=O)O)NC(=O)[C@@H](CCCNC(=N)N)NC(=O)[C@H](Cc1ccc(O)cc1)NC(=O)Cc1ccccc1)[C@@H](C)CC)[C@@H](C)O)C(C)C)[C@@H](C)CC)C(=O)N[C@H](CCCNC(=N)N)C(=O)N[C@@H](CCCCNC(=N)N)C(N)=O` [listing 1 of 2 here], the Activity with Mus musculus [1] is 24.6 g.
A word on the inhibition in vivo: it is the drop in the measured response relative to a control, in per cent. A word on the Kd: it is the constant that tells how readily two partners part at equilibrium. Higher therefore signals weaker binding. Usually IC50 stands for the concentration at which inhibition is half-maximal. A low value points to greater potency in that assay. Turning to `CC(=O)O[C@@]12CO[C@@H]1C[C@H](O)[C@@]1(C)C(=O)[C@H](O)C3=C(C)[C@@H](OC(=O)[C@H](O)[C@@H](NC(=O)OC(C)(C)C)c4ccccc4)C[C@@](O)([C@@H](OC(=O)c4ccccc4)[C@H]21)C3(C)C.O.O.O` [DOCETAXEL], the inhibition in vivo at 20 mg/kg worked out at 58.6% in the data set with MX1 [2], 29% in the data set on MX1 [4] and 74.1% in the data set on MX1 [7]. The Activity in the data set on Mus musculus [3] came to 24 g. In data set [5], this compound returned a Bmax of 278 fmol/mg. In addition, the dissociation constant (Kd) in data set [5] is 0.82 nM. This compound also registered a concentration for half-maximal inhibition (IC50) in [6] of 0.14 nM.
The Inhibition is the share of the control response that was lost under treatment. In the case of `CCCC[C@H](NC(=O)[C@@H](NC(=O)[C@H](CC(=O)O)NC(=O)[C@H](CCC(N)=O)NC(=O)[C@H](CC(C)C)NC(=O)[C@H](CC(C)C)NC(=O)[C@H](CCCCN)NC(=O)[C@H](Cc1cnc[nH]1)NC(=O)[C@H](C)NC(=O)[C@H](CO)NC(=O)[C@H](CC(C)C)NC(=O)[C@H](CCC(N)=O)NC(=O)[C@H](CC)NC(=O)[C@H](CC(C)C)NC(=O)[C@@H](NC(=O)[C@H](CCCCN)NC(=O)[C@H](Cc1cnc[nH]1)NC(=O)[C@H](Cc1ccc(OC)cc1)NC(=O)[C@H](CCCCNC(=N)N)NC(=O)[C@H](C)NC(=O)[C@@H](NC(=O)[C@H](Cc1ccc(Cl)cc1)NC(=O)[C@@H](NC(=O)[C@H](C)NC(=O)[C@H](CC(=O)O)NC(=O)[C@@H](CCCNC(=N)N)NC(=O)[C@H](Cc1ccc(O)cc1)NC(=O)Cc1ccccc1)[C@@H](C)CC)[C@@H](C)O)C(C)C)[C@@H](C)CC)C(=O)N[C@H](CCCNC(=N)N)C(=O)N[C@@H](CCCCNC(=N)N)C(N)=O` [listing 2 of 2 here], the Inhibition in the data set on MX1 [8] was found to be 47.8%; in the data set on MX1 [9], 62.9%.
What is called inhibition is how much of the control response was suppressed. Read a high inhibition as a strong effect. With `CC[C@H](NC(=O)[C@H](CC(C)C)NC(=O)[C@@H](NC(=O)[C@H](CCCCN)NC(=O)[C@H](Cc1cnc[nH]1)NC(=O)[C@H](Cc1ccc(C)cc1)NC(=O)[C@H](CCCCNC(=N)N)NC(=O)[C@H](C)NC(=O)[C@@H](NC(=O)[C@H](Cc1ccc(Cl)cc1)NC(=O)[C@@H](NC(=O)[C@H](C)NC(=O)[C@H](CC(=O)O)NC(=O)[C@@H](CCCNC(=N)N)NC(=O)[C@H](Cc1ccc(O)cc1)NC(=O)Cc1ccccc1)[C@@H](C)CC)[C@@H](C)O)C(C)C)C(=O)N[C@@H](CCC(N)=O)C(=O)N[C@@H](CC(C)C)C(=O)N[C@@H](CO)C(=O)N[C@@H](C)C(=O)N[C@@H](Cc1cnc[nH]1)C(=O)N[C@@H](CCCCN)C(=O)N[C@@H](CC(C)C)C(=O)N[C@@H](CC(C)C)C(=O)N[C@@H](CCC(N)=O)C(=O)N[C@@H](CC(=O)O)C(=O)N[C@H](C(=O)N[C@H](C(=O)N[C@H](CCCNC(=N)N)C(=O)N[C@@H](CCCCNC(=N)N)C(N)=O)[C@@H](C)CC)[C@@H](C)CC`, in data set [5], the Bmax amounted to 92.4 fmol/mg and the Kd was 0.94 nM. The inhibition in [5] (concentration not given here) amounted to 68%.

(Values after ChEMBL document CHEMBL1147056, “Potentiation of mammary cancer inhibition by combination of antagonists of growth hormone-releasing hormone with docetaxel” (Proc Natl Acad Sci U S A, 2007).)
